Assay type in all cases: cell-based
The subject of one assay is MV-4-11. Put plainly: Anti-proliferation assay (CellTiter-Glo 2.0), combination index, MV-4-11. The protocol:
(§1) Cell lines were obtained from ATCC or Health Science Research Resources Bank.
(§2) 384 well culture plate (781086, Greiner Bio-One International) was used for cell survival rate measurement assay. Each cell lines were collected by ordinary method, then suspended in indicated medium containing 10% fetal bovine serum in table 3. The number of cells seeded per well was set to 500 cells/20 μL. After incubation at 37° C. for 24 hours under 5% CO2, Compound 1 and additional compound having an antitumor effect or a vehicle (DMSO) was added to each well by using D300e Digital Dispenser (Tecan). The concentration of Compound 1 was set to 10 concentrations. The concentration of each anti-cancer reagents set to 8 concentrations including 0 nM. After adding the medicine to the cells, the cells were further incubated at 37° C. for 3 days under 5% CO2. Cell survival rates were calculated by adding 20 μL of CellTiter-Glo(registered trademark) 2. 0 (Promega) solution to each well, incubating the cells at room temperature for 10 minutes, and then measuring the chemiluminescence intensity of each well using a plate reader (ARVO).
(§3) A combination index (CI) value at each combined concentration of the medicines was determined.

For a further assay, the system named is RMG-I. Put plainly: Anti-proliferation assay (CellTiter-Glo 2.0), combination index, RMG-I. The protocol:
as §1, §2, §3
Background: Cellular ATP, detected with luciferase, serves as a proxy for viable cell number.

Another assay deals with NCI-H358. Put plainly: Anti-proliferation assay (CellTiter-Glo 2.0), combination index, NCI-H358. An outline of the steps: (§4)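 Cells were seeded at 500 cells/well in medium with 10% FBS and exposed to agents at 8 concentrations including 0 nM, for 3 days at 37° C under 5% CO2. Survival was read by CellTiter-Glo 2.0 luminescence, and combination index was determined at each combined concentration.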

Another assay deals with MKN45. Kind of assay: Anti-proliferation assay (CellTiter-Glo 2.0), combination index, MKN45. Particulars: Compound 1 123 + combination drug 10000 nmol/L (1:81). The procedure, abridged: as §4
The subject of the next assay is RT4. Kind of assay: Anti-proliferation assay (CellTiter-Glo 2.0), combination index, RT4. An outline of the steps: as §4
[1] abbreviates: Compound 1 1.52 + combination drug 123 nmol/L (1:81).
Where [2] appears, read: Compound 1 4.57 + combination drug 370 nmol/L (1:81).
The mark [3] stands for this setting: Compound 1 13.7 + combination drug 1110 nmol/L (1:81).
The mark [4] stands for this setting: Compound 1 41.2 + combination drug 3330 nmol/L (1:81).
Setting [5] is: Compound 1 123 + combination drug 10000 nmol/L (1:81).
[6] abbreviates: Compound 1:combination drug molar ratio 1:81.
The mark [7] stands for this setting: Compound 1 41.2 + combination drug 370 nmol/L (1:9).
Setting [8] is: Compound 1 123 + combination drug 1110 nmol/L (1:9).
[9] abbreviates: Compound 1 370 + combination drug 3330 nmol/L (1:9).
Where [10] appears, read: Compound 1:combination drug molar ratio 1:9.
[11] abbreviates: Compound 1 13.7 + combination drug 13.7 nmol/L (1:1).
Setting [12] is: Compound 1 41.2 + combination drug 41.2 nmol/L (1:1).
Where [13] appears, read: Compound 1 123 + combination drug 123 nmol/L (1:1).
Setting [14] is: Compound 1 13.7 + combination drug 370 nmol/L (1:27).
Setting [15] is: Compound 1 41.2 + combination drug 1110 nmol/L (1:27).
Where [16] appears, read: Compound 1 123 + combination drug 3330 nmol/L (1:27).
[17] abbreviates: Compound 1 370 + combination drug 10000 nmol/L (1:27).
The mark [18] stands for this setting: Compound 1 1110 + combination drug 10000 nmol/L (1:9).

Regarding `CC[C@H](Nc1ncnc2[nH]cnc12)c1nc2cccc(F)c2c(=O)n1-c1ccccc1` [Idelalisib], the CI with MV-4-11 (setting [1]) worked out at 0.301; with MV-4-11 (setting [2]), 0.600; with MV-4-11 (setting [3]) it was 0.330; in the assay on MV-4-11 (setting [4]) it was 0.262; in the assay with MV-4-11 (setting [5]) it was 0.273; in the assay with RMG-I (setting [1]), 0.778. The figures for the CI with RMG-I (setting [3]), in the assay with RMG-I (setting [4]) and in the assay on RMG-I (setting [5]) were 0.511, 0.333 and 0.570, respectively. For the same compound, the Fa in the assay on MV-4-11 (setting [1]) is listed as 0.2988; with MV-4-11 (setting [2]), 0.3705; in the assay on MV-4-11 (setting [3]), 0.7136; in the assay on MV-4-11 (setting [4]), 0.8924; in the assay with MV-4-11 (setting [5]), 0.9566; in the assay with RMG-I (setting [1]), 0.0902. The figures for the Fa with RMG-I (setting [3]), in the assay with RMG-I (setting [4]) and in the assay on RMG-I (setting [5]) were 0.2747, 0.5012 and 0.6059, respectively. For the same compound, in the assay on RMG-I (setting [6]), the “Description (combinatory effect by CI)” value is reported as “Synergy (0.3-0.7)”.
With `CCN(CC)CCNC(=O)c1c(C)[nH]c(/C=C2\C(=O)Nc3ccc(F)cc32)c1C` [Sunitinib], the CI with NCI-H358 (setting [7]) amounted to 0.502; in the assay with NCI-H358 (setting [8]), 0.747; with NCI-H358 (setting [9]), 0.612; in the assay on MKN45, 0.818; in the assay on RT4 (setting [2]) it was 0.687; in the assay with RT4 (setting [3]), 0.392. Moreover, the CI with RT4 (setting [4]) was 0.624; in the assay on MV-4-11 (setting [11]), 0.262; in the assay on MV-4-11 (setting [12]) it was 0.327; in the assay with MV-4-11 (setting [13]) it was 0.902. In addition, the Fa was determined as 0.4562 with NCI-H358 (setting [7]); 0.7002 with NCI-H358 (setting [8]); 0.9541 in the assay on NCI-H358 (setting [9]); 0.8052 in the assay on MKN45; 0.1808 with RT4 (setting [2]); 0.4883 with RT4 (setting [3]). Moreover, the Fa was 0.6270 with RT4 (setting [4]), 0.9463 in the assay with MV-4-11 (setting [11]), 0.9651 with MV-4-11 (setting [12]) and 0.9666 in the assay with MV-4-11 (setting [13]). Moreover, the “Description (combinatory effect by CI)” value in the assay with NCI-H358 (setting [10]) and with RT4 (setting [6]) was “Synergy (0.3-0.7)” each time.
For `CC1(C)CCC(CN2CCN(c3ccc(C(=O)NS(=O)(=O)c4ccc(NCC5CCOCC5)c([N+](=O)[O-])c4)c(Oc4cnc5[nH]ccc5c4)c3)CC2)=C(c2ccc(Cl)cc2)C1` [Venetoclax], the CI with RT4 (setting [14]) worked out at 0.479; in the assay on RT4 (setting [15]), 0.497; with RT4 (setting [16]), 0.888; in the assay with RT4 (setting [17]) it was 0.888; in the assay on MV-4-11 (setting [11]), 0.424; with MV-4-11 (setting [12]), 0.080. The CI in the assay on MV-4-11 (setting [13]) amounted to 0.007; with RMG-I (setting [8]), 0.687; in the assay with RMG-I (setting [9]) it was 0.601; in the assay with RMG-I (setting [18]), 0.668. Besides, the Fa turned out to be 0.1751 in the assay with RT4 (setting [14]); 0.3605 in the assay with RT4 (setting [15]); 0.5099 in the assay with RT4 (setting [16]); 0.8781 in the assay on RT4 (setting [17]); 0.7436 with MV-4-11 (setting [11]); 0.9696 with MV-4-11 (setting [12]). Also, the Fa is listed as 0.9987 in the assay on MV-4-11 (setting [13]), 0.4133 with RMG-I (setting [8]), 0.5921 in the assay on RMG-I (setting [9]) and 0.9240 in the assay with RMG-I (setting [18]). The “Description (combinatory effect by CI)” value with RT4 (Compound 1:combination drug molar ratio 1:27) and in the assay on RMG-I (setting [10]) was “Synergy (0.3-0.7)” in each case.
